# “Also recorded” adds a separate entry of the source. Like-named read-outs stand apart in the source and are kept apart here.
# Tests used:
# [1] = system: PKC isozymes; details: cited from earlier work
# [2] = target: protein kinase C eta (Homo sapiens, UniProt P24723); experiment: PKC Enzyme Assay, eta isozyme; format: biochemical; details: 30 μM ATP, 30° C., 10 minutes
# Procedure: (§1) PKC enzymes=alpha, beta 1, beta II, gamma, delta, epsilon, eta and zeta.
# (§2) Assay components in a total volume of 250 μL are the following:
# (§3) Vesicles consisting of 120 μg/mL phosphatidylserine (Avanti Polar Lipids)and sufficient diacylglycerol (Avanti Polar Lipids) to activate the enzyme to maximum activity in 20 mM HEPES buffer (Sigma, St. Louis, Mo.), pH 7.5, 940 μM calcium chloride (Sigma, St. Louis, Mo.) for assaying the alpha, beta I, beta II and gamma enzyme only, 1 mM EGTA for all the enzymes, 10 mM magnesium chloride (Sigma, St. Louis, Mo.) and 30 μM (gamma-32P) ATP (DuPont). For all the enzymes either histone type HL (Worthington) or myelin basic protein is used as substrate. The assay is started by addition of protein kinase C enzyme incubated at 30° C. for 10 minutes and stopped by adding 0.5 mL of cold trichloroacetic acid (Amresco) followed by 100 μL of 1 mg/mL bovine serum albumin (Sigma, St. Louis, Mo.). The precipitate is collected by vacuum filtration on glass fiber filters employing a TOMTEC™ filtration system and quantified by counting in a beta scintillation counter.
# [3] = target: protein kinase C alpha (Homo sapiens, UniProt P17252); experiment: PKC Enzyme Assay, alpha isozyme; format: biochemical; details: 30 μM ATP, 30° C., 10 minutes
# Procedure: as §1, §2, §3
# [4] = target: protein kinase C beta-1 (Homo sapiens, UniProt P05771); experiment: PKC Enzyme Assay, beta-1 isozyme; format: biochemical; details: PKC beta-1; 30 μM ATP, 30° C., 10 minutes; read-out: IC50 β1
# Procedure: as §1, §2, §3
# [5] = target: protein kinase C beta-2 (Homo sapiens, UniProt P05771); experiment: PKC Enzyme Assay, beta-2 isozyme; format: biochemical; details: PKC beta-2; 30 μM ATP, 30° C., 10 minutes; read-out: IC50 β2
# Procedure: as §1, §2, §3
# [6] = target: protein kinase C gamma (Homo sapiens, UniProt P05129); experiment: PKC Enzyme Assay, gamma isozyme; format: biochemical; details: 30 μM ATP, 30° C., 10 minutes
# Procedure: as §1, §2, §3
# [7] = target: protein kinase C delta (Homo sapiens, UniProt Q05655); experiment: PKC Enzyme Assay, delta isozyme; format: biochemical; details: 30 μM ATP, 30° C., 10 minutes
# [8] = target: T1, protein kinase C epsilon (Homo sapiens, UniProt Q02156); experiment: PKC Enzyme Assay, epsilon isozyme; format: biochemical; details: 30 μM ATP, 30° C., 10 minutes
# T1 sequence (Q02156 1-737): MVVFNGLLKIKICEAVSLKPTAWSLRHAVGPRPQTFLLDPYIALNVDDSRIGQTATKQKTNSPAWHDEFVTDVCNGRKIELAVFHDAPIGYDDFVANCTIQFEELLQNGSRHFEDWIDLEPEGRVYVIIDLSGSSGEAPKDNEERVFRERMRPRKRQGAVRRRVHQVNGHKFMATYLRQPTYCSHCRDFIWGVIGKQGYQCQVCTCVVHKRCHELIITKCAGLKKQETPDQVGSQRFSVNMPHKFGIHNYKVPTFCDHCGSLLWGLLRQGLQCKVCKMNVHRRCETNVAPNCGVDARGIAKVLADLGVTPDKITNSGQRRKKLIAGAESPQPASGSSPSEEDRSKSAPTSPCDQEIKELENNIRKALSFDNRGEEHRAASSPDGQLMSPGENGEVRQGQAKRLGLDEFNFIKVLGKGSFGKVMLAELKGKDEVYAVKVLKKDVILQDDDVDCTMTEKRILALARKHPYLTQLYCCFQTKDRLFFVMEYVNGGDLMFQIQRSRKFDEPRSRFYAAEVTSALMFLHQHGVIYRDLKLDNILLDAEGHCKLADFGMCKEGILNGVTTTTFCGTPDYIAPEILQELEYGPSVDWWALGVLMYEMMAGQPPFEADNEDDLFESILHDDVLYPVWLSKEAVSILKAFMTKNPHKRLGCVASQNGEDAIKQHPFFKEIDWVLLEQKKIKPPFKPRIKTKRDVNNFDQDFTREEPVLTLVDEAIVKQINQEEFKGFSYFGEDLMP
# Procedure: as §1, §2, §3
# [9] = target: T2, protein kinase C zeta (Homo sapiens, UniProt Q05513); experiment: PKC Enzyme Assay, zeta isozyme; format: biochemical; details: 30 μM ATP, 30° C., 10 minutes
# T2 sequence (Q05513 1-592): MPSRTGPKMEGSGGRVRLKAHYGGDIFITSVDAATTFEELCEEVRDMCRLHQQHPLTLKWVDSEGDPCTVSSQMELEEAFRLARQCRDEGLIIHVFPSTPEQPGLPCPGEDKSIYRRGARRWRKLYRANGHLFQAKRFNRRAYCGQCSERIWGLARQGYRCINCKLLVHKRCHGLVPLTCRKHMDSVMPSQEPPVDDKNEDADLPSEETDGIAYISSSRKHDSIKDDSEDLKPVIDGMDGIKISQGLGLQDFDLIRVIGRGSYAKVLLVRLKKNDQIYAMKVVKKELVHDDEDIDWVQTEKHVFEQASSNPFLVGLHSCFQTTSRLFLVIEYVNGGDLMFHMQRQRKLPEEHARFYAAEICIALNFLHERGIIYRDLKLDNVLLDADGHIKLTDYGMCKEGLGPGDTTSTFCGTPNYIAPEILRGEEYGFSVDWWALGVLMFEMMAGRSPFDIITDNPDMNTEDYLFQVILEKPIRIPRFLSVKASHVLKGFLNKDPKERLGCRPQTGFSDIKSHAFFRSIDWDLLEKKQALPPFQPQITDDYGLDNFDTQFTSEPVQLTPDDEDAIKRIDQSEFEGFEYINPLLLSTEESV
# Procedure: as §1, §2, §3
# Chain of protein kinase C eta (P24723 whole entry): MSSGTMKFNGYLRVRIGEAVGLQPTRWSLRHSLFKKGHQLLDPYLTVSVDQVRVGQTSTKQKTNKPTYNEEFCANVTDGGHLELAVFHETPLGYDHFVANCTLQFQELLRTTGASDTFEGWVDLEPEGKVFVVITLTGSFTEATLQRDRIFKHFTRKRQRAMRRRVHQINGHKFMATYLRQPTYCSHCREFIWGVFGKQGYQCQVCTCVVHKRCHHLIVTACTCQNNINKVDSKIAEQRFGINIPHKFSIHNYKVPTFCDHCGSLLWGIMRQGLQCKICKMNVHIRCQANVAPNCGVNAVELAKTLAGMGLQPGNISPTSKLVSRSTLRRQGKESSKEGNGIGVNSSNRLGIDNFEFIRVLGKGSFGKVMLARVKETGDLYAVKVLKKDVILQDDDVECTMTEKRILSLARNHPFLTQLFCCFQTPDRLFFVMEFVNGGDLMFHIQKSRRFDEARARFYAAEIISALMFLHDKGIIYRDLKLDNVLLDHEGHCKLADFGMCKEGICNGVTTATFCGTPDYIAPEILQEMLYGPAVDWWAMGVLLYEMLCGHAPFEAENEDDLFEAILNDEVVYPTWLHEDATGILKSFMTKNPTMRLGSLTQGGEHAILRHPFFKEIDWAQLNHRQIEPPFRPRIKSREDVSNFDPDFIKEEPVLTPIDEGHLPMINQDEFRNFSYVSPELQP
# Chain of protein kinase C beta-1 (P05771 whole entry): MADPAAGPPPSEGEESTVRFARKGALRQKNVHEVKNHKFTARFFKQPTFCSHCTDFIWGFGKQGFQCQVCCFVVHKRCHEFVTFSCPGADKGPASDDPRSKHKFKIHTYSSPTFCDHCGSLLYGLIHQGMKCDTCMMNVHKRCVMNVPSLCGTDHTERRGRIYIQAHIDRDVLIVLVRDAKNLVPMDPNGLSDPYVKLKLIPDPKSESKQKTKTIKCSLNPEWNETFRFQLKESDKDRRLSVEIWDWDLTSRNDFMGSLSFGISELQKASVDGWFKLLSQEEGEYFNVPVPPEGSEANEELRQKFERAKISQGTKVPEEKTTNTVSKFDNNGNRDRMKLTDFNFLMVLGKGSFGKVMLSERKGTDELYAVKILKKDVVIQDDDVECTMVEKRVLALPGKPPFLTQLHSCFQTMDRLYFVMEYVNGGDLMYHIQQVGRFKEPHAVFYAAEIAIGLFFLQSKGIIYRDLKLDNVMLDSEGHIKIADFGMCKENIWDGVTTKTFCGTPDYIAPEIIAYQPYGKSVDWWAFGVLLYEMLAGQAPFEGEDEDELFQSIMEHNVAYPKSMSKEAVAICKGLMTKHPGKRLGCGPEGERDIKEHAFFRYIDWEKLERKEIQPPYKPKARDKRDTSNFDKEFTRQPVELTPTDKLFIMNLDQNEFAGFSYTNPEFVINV
# Chain of protein kinase C beta-2 (P05771 1-673 isoform P05771-2): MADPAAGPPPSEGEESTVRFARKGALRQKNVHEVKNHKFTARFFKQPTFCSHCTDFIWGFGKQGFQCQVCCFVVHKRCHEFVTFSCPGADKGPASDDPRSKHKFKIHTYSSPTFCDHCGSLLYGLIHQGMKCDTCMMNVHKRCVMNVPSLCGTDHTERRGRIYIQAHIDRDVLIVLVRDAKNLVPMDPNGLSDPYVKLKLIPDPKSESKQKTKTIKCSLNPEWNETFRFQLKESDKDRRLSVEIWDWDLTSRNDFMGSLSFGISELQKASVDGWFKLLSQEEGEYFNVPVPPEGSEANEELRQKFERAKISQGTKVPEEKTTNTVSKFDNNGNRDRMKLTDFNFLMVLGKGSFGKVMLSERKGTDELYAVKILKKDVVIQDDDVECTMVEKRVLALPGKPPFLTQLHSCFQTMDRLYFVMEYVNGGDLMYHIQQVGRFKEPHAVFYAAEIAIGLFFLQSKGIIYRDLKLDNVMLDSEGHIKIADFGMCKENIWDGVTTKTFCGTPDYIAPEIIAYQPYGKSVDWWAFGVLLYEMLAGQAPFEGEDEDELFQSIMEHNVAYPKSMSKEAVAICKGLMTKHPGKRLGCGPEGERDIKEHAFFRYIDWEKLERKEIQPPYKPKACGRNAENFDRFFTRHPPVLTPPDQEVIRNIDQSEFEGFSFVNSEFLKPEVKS
# Chain of protein kinase C delta (Q05655 whole entry): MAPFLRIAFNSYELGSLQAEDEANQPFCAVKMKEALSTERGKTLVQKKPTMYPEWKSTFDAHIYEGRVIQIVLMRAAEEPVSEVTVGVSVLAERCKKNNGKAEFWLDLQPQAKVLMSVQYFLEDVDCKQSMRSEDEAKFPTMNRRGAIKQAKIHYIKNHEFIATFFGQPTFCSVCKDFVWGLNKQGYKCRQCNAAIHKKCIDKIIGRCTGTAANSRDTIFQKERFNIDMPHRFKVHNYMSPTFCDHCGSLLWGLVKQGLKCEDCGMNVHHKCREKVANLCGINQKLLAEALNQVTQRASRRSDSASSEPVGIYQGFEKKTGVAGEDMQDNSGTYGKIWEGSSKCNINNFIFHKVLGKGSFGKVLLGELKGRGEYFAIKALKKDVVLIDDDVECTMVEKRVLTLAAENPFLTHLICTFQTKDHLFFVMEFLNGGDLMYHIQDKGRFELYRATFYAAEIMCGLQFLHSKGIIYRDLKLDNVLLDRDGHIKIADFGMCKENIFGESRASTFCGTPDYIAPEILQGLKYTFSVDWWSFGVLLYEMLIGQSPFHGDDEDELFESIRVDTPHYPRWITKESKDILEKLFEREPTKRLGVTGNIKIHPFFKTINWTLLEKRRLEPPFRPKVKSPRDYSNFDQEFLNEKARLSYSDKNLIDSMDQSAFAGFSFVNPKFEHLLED
smiles,measurement,setting,value
"CN(C)CCCn1cc(C2=C(c3c[nH]c4ccccc34)C(=O)NC2=O)c2ccccc21 [3-[1-(3-dimethylaminopropyl)-indol-3-yl]-4-(1H-indol-3-yl)-1H-pyrrole-2,5-dione]",isozyme selectivity,"[1]; Martiny-Baron, et al., J. Biol. Chem. 268:9194-9197 (1993)","slight selectivity for isozymes, alpha and beta versus delta, epsilon, and zeta; also recorded: no differences in the selectivity between alpha and beta-1 isozymes"
same,isozyme selectivity,"[1]; Toullec et al., J. Biol. Chem. 266:15771-15781 (1991)","slight selectivity for the calcium dependent isozymes; also recorded: no isozyme selectivity between alpha, beta-1, beta-2, and gamma"
"CC(C)(C)OC(=O)NCC(=O)n1cc(C2=C(c3cn(CCCN=[N+]=[N-])c4ccccc34)C(=O)NC2=O)c2ccccc21 [Example 1, 3-[1-(3-azidopropyl)-3-indolyl]-4-[(1-N-^t BOC )-glycine-3indolyl]-1H-pyrrol-2,5-dione]",IC50,[2],2600 nM
"CN(C)CCCn1cc(C2=C(c3cn(C(=O)CNC(=O)OC(C)(C)C)c4ccccc34)C(=O)NC2=O)c2ccccc21 [Example 2, 3-[1-(3-N,N'-dimethylaminopropyl)-3-indolyl]-4-[(1-N-^t BOC)-glycine-3-indolyl]-1H-pyrrol-2,5-dione]",IC50,[3],2300 nM
same,IC50,[4],150 nM
same,IC50,[5],40 nM
same,IC50,[6],2600 nM
same,IC50,[7],2900 nM
same,IC50,[8],6100 nM
same,IC50,[9],45000 nM
same,IC50,[2],370 nM
"CC(C)(C)OC(=O)N[C@@H](Cc1ccccc1)C(=O)n1cc(C2=C(c3cn(C(=O)[C@H](Cc4ccccc4)NC(=O)OC(C)(C)C)c4ccccc34)C(=O)NC2=O)c2ccccc21 [Example 3, 3,4-Bis[(1-N-^t BOC)-phenylalanine-3-indolyl]-1H-Pyrrol-2,5-dione]",IC50,[4],1000 nM
